The results in this text go back to ChEMBL document CHEMBL2311401, “Molecular determinants of a selective matrix metalloprotease-12 inhibitor: insights from crystallography and thermodynamic studies” (J Med Chem, 2013).

pKi: −log10 of the molar value. Calls of active or inactive are those of the source. The calls are words filed in the database; no cut-off is given here.

Assay [1] addresses Stromelysin-1 (Homo sapiens) (UniProt P08254). Put plainly: Inhibition of human MMP3 using Mca-Pro-Leu-Gly-Leu-Dpa-Ala-Arg-NH2 as substrate by spectrophotometry.
Assay [2] concerns the target Matrix metalloproteinase-9 (Homo sapiens) (UniProt P14780). Put plainly: Inhibition of human MMP9 using Mca-Pro-Leu-Gly-Leu-Dpa-Ala-Arg-NH2 as substrate by spectrophotometry.
The target of assay [3] is 72 kDa type IV collagenase (Homo sapiens) (UniProt P08253). Put plainly: Inhibition of human MMP2 using Mca-Pro-Leu-Gly-Leu-Dpa-Ala-Arg-NH2 as substrate by spectrophotometry.
72 kDa type IV collagenase (Homo sapiens), sequence (P08253 110-660 limits assumed): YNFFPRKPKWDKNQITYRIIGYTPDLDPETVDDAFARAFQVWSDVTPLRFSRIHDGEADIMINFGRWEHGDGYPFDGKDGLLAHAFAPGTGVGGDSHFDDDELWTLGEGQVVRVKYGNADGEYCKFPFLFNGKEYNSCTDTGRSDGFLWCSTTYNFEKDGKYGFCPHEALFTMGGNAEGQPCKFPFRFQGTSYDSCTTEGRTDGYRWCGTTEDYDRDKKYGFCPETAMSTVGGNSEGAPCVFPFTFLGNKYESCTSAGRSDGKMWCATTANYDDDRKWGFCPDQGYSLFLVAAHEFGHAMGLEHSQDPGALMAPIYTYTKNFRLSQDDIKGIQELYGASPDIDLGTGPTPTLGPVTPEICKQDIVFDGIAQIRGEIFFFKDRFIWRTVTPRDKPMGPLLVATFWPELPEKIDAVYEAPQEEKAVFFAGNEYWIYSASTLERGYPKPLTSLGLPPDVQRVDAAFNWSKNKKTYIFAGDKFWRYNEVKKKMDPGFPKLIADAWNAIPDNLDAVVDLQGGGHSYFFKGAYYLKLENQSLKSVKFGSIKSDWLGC
Assay [4] has as its target Neutrophil collagenase (Homo sapiens) (UniProt P22894). Put plainly: Inhibition of human MMP8 catalytic domain (21 to 261) using Mca-Pro-Leu-Gly-Leu-Dpa-Ala-Arg-NH2 as substrate by spectrophotometry.
For assay [5], the target named is Stromelysin-2 (Homo sapiens) (UniProt P09238). Put plainly: Inhibition of human MMP10 using Mca-Pro-Leu-Gly-Leu-Dpa-Ala-Arg-NH2 as substrate by spectrophotometry.
Stromelysin-2 (Homo sapiens), sequence (P09238 99-476 limits assumed): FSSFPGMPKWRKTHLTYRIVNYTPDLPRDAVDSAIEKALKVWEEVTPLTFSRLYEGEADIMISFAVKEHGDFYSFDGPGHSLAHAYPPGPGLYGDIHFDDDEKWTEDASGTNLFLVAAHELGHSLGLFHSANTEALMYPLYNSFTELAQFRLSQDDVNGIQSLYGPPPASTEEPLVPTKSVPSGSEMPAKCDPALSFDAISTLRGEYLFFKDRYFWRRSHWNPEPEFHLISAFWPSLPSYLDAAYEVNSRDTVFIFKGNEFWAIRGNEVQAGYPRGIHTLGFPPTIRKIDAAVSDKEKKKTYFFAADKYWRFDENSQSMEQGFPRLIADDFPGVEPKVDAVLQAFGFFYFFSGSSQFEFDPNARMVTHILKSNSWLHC
Assay [6] has as its target Collagenase 3 (Homo sapiens) (UniProt P45452). Put plainly: Inhibition of human MMP13 prodomain (20 to 272) using Mca-Pro-Leu-Gly-Leu-Dpa-Ala-Arg-NH2 as substrate by spectrophotometry.
The target in assay [7] is T1, Macrophage metalloelastase (Homo sapiens, UniProt P39900). Put plainly: Binding affinity to human MMP12 catalytic domain (98 to 266) by isothermal titration calorimetry.
Target sequence in this assay (P39900 whole entry, the tested form may be a part): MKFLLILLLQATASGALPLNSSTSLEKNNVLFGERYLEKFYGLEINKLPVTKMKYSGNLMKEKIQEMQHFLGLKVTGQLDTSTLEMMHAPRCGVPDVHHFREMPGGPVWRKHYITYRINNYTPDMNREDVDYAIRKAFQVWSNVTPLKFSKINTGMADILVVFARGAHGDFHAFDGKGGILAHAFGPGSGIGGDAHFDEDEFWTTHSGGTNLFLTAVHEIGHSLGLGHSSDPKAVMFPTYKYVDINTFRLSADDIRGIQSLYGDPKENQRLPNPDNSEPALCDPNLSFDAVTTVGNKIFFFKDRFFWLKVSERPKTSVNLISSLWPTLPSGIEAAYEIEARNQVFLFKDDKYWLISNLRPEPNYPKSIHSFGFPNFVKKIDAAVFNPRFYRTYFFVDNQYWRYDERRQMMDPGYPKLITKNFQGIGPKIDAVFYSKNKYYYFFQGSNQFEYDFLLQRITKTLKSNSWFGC
Assay [8] has as its target Matrix metalloproteinase-14 (Homo sapiens) (UniProt P50281). Put plainly: Inhibition of human MMP14 using Mca-Pro-Leu-Gly-Leu-Dpa-Ala-Arg-NH2 as substrate by spectrophotometry.
Assay [9] addresses T1, Macrophage metalloelastase. Put plainly: Inhibition of human MMP12 catalytic domain (98 to 266) at pH 6 to 7 by isothermal titration calorimetry.
Target sequence in this assay (P39900 106-470 limits assumed): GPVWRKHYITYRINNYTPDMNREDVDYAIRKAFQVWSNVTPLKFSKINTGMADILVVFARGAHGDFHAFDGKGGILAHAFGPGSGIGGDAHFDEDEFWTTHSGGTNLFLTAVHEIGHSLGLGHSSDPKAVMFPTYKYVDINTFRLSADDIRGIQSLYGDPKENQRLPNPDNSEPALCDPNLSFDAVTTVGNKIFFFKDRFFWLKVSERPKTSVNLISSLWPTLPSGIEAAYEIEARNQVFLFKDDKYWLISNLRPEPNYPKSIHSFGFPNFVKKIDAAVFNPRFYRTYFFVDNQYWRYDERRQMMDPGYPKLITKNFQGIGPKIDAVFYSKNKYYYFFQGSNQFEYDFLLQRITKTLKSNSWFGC
For assay [10], the target named is T1, Macrophage metalloelastase. Put plainly: Inhibition of human MMP12 catalytic domain (98 to 266) at pH 6.8 by isothermal titration calorimetry.
Target sequence in this assay (P39900 whole entry, the tested form may be a part): as the sequence (P39900 whole entry, the tested form may be a part) above

Stromelysin-1 (Homo sapiens), sequence (P08254 100-477 limits assumed): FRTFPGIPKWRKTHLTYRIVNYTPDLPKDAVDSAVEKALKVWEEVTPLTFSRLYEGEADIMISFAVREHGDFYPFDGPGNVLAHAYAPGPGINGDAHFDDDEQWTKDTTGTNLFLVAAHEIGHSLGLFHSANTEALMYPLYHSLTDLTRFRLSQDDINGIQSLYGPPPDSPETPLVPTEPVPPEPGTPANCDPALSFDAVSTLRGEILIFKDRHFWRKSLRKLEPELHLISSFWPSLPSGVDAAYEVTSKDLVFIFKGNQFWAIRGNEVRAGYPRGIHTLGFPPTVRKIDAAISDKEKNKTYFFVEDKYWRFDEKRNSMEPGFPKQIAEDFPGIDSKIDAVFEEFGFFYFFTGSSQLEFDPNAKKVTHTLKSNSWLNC
Neutrophil collagenase (Homo sapiens), sequence (P22894 101-467 limits assumed): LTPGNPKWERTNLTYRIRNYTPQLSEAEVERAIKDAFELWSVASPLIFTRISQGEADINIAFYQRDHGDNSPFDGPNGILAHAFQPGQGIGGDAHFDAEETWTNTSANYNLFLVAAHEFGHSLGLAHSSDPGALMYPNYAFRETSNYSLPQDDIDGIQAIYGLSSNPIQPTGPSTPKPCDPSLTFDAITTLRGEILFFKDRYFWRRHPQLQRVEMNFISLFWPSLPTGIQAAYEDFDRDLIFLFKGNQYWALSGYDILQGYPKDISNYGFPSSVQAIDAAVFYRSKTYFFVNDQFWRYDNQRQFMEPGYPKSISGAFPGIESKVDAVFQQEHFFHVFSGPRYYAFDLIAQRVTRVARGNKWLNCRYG
Matrix metalloproteinase-9 (Homo sapiens), sequence (P14780 whole entry): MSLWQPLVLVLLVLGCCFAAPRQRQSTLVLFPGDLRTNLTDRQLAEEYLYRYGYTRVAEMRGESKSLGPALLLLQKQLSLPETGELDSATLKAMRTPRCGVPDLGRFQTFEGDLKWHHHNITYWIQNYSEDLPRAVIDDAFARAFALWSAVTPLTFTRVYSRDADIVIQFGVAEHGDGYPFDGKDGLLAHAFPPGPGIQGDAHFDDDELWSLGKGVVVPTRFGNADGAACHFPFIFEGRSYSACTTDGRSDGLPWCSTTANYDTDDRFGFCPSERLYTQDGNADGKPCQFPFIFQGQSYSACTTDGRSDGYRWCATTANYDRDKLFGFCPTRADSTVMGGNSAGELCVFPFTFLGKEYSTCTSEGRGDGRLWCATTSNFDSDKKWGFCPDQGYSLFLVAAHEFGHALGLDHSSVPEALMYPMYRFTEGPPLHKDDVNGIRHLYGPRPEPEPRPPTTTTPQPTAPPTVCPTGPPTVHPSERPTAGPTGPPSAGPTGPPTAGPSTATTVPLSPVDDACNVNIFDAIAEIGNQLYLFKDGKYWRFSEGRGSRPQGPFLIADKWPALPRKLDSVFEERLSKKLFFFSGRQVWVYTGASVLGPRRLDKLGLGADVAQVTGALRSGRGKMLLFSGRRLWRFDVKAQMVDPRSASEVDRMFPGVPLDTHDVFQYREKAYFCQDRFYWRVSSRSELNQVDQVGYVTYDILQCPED

For `NC(=O)[C@H](CCC(=O)O)NC(=O)[C@H](CCC(=O)O)NC(=O)[C@H](Cc1cc(-c2ccccc2)no1)CP(=O)(O)c1ccc(Br)cc1`, the inhibition entry in assay [1], in assay [2], in assay [3], in [4], in assay [5] and in [6] was “Active” throughout. In addition, the inhibition result in assay [8] was “Active”. The same molecule gave a pKi in [7] of 7.81.

For `C[C@H](NC(=O)[C@H](C)NC(=O)[C@H](Cc1cc(-c2ccc(-c3cccc(Cl)c3)cc2)no1)CP(=O)(O)c1ccc(Br)cc1)C(N)=O`, the inhibition entry in assay [1], in [4], in [6] and in assay [8] was “inactive” throughout. Further, the inhibition entry in assay [2], in [3] and in [5] was “Active” each time. Further, in assay [7], the pKi is 9.55.

As for `NC(=O)[C@H](CCC(=O)O)NC(=O)[C@H](CCC(=O)O)NC(=O)[C@H](Cc1cc(-c2ccc(-c3cccc(Cl)c3)cc2)no1)CP(=O)(O)c1ccc(Br)cc1`, the inhibition result in assay [1] and in assay [5] was “Active” in each case. The same molecule returned an INH in [9] of 0.044 nM. Further, the pKi in assay [10] was 9.62.

On to `C[C@H](NC(=O)[C@H](C)NC(=O)[C@H](Cc1cc(-c2ccccc2)no1)CP(=O)(O)c1ccc(Br)cc1)C(N)=O`, for which the inhibition entry in assay [1], in assay [9] and in [5] was “Active” throughout. In addition, in assay [7], the pKi is 7.83.
